Results on 1 compound are retold here after patent US8163894B2, “DNA for eukaryotic expression of CymR” (National Research Council of Canada, priority 2001, dated 2012).

Type in all cases: cell-based
The target of assay [1] is CymR-VP16 transactivator in HeLa cells (Pseudomonas putida, UniProt O33453). Put plainly: Cumate switch strategy 1: transient co-transfection, β-gal, HeLa cells. Here is the method:
Transient transfections in 293 and HeLa cells were carried out using the calcium phosphate technique. One (1) ml of DNA-calcium phosphate precipitate contained 5 μg reporter, 250 ng activator/repressor (unless mentioned otherwise) and 3 μg seap in a total of 10 μg DNA. This was divided equally between two 60 mm plates, each containing 10^6 293 cells. One of the two plates received in addition 200 μg/ml cumate. Transient transfections in BMAD78-42 were carried out using Geneporter™ according to manufacturers directions. Briefly, 3 μg DNA (2 μg reporter, 25 ng transactivator and 0.5 μg seap) in 500 μl DMEM was added to 6×10^5 BMAd78-42 cells in DMEM. After 3 h 1 ml DMEM supplemented with 20% serum was added to the plates. […]
Measurement of Seap and β-gal activity Seap activity was measured in 50 μl of cell culture medium by adding 50 μl of 2× seap buffer (1M diethanolamine PH 9.8, 2 mM MgCl2, 10 mM 1-homoarginine and 20 mM p-nitrophenyl phosphate, disodium, hexahydrate Sigma 104 phosphatase substrate) and incubating at room temperature. OD405 was read using a plate reader at different intervals. This information was used to ensure that the enzyme activity was measured under conditions where the substrate was in excess. β-galactosidase activity was measured in transfected cell extracts. […] OD420 was measured at regular intervals until the reaction appeared to plateau. […]

Assay [2] addresses CymR-VP16 transactivator in BMAdE1/78-42 cells (Pseudomonas putida, UniProt O33453).
Experimental: Transient transfections in BMAD78-42 were carried out using Geneporter™ according to manufacturers directions. Briefly, 3 μg DNA (2 μg reporter, 25 ng transactivator and 0.5 μg seap) in 500 μl DMEM was added to 6×10^5 BMAd78-42 cells in DMEM. After 3 h 1 ml DMEM supplemented with 20% serum was added to the plates. Half the samples received DMEM supplemented with 20% serum and 400 μg/ml cumate.
Measurement of Seap and β-gal activity Seap activity was measured in 50 μl of cell culture medium by adding 50 μl of 2× seap buffer (1M diethanolamine PH 9.8, 2 mM MgCl2, 10 mM 1-homoarginine and 20 mM p-nitrophenyl phosphate, disodium, hexahydrate Sigma 104 phosphatase substrate) and incubating at room temperature. OD405 was read using a plate reader at different intervals. This information was used to ensure that the enzyme activity was measured under conditions where the substrate was in excess. β-galactosidase activity was measured in transfected cell extracts. Cells were lysed 48 h post-transfection by three freeze-thaw cycles in 0.25M Tris.Hcl pH8. The cell lysate was centrifuged at 14,000×g and enzyme (β-galactosidase) activity was measured in the supernatant (cell extract) using a colorimetric assay containing 1 mM MgCl2, 0.9 mg/ml ONPG, and 66 mM sodium phosphate (pH 7.5). […] OD420 was measured at regular intervals until the reaction appeared to plateau. […]
Assay [3] deals with CHO-cTA clones (cumate transactivator). In words: Adenoviral infection of CHO-cTA clones, total GFP fluorescence by flow cytometry. As for the experimental part:
1×10^6 CHO cells were transfected with 5 μg of pMPG-cTA-tk-neo-nls using 12 μl of LIPOFECTAMINE 2000 according to the instructions of the manufacturer. 1200 μg/ml G418 was added to the growth medium 48 h after transfection to select a pool of G418-resistant cells. Individual clones (CHO-cTA) were isolated from this pool by the method of limiting dilution.
CHO-cTA clones were infected with AdCMV5GFPq or AdCR5GFPq at MOIs of 100, 300 and 900 in the presence or absence of 200 μg/ml cumate. Forty-eight hours post-infection, cells were fixed in 2% paraformaldehyde in PBS. Total GFP fluorescence of the infected population was measured using an EPICS-XL flow cytometer (Coulter).

Sequence of CymR-VP16 transactivator in HeLa cells (O33453 whole entry, added parts left off): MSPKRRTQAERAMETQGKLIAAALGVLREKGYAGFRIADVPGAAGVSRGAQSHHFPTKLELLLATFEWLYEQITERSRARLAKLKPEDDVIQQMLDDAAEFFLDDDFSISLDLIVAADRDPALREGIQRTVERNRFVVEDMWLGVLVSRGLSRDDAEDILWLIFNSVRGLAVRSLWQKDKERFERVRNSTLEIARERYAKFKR
Sequence of CymR-VP16 transactivator in BMAdE1/78-42 cells (O33453 whole entry, added parts left off): as above

Take `CC(C)c1ccc(C(=O)O)cc1` [cumate, cumic acid]: the “decrease in activation by the transactivator on addition of cumate” value in assay [1] (pAdcTA1(+nls)) came out at 9.4 fold. For the same compound, the “reduction in activation on addition of cumate” value in assay [1] (pAdcTA1(−nls)) was found to be 34 fold; in assay [2] (BMAdE1/78-42, pAdcTA1(−nls)) it was 22 fold. In addition, in assay [2] (BMAdE1/78-42, pAdcTA1(+nls)), the “reduction of activation on addition of cumate” value worked out at 3.9 fold. Also, the “GFP expression over mock infected cells after addition of cumate” value in assay [3] (AdCR5-GFPq MOI 100, 200 μg/ml cumate) turned out to be 2 fold; in assay [3] (AdCR5-GFPq MOI 300, 200 μg/ml cumate), 4.5 fold; in assay [3] (AdCR5-GFPq MOI 900, 200 μg/ml cumate), 20.6 fold.
